Results on 12 molecules are retold here after patent US11590116B2 (THERAVANCE BIOPHARMA R&D IP, LLC, priority 2019, dated 2023).

In test [1] the target is T1, recombinant human ALK5 (TGF-βR1) protein (Homo sapiens, UniProt P36897).
T1 construct: purchased Life Technologies PR9075A
T1 sequence (P36897 34-503): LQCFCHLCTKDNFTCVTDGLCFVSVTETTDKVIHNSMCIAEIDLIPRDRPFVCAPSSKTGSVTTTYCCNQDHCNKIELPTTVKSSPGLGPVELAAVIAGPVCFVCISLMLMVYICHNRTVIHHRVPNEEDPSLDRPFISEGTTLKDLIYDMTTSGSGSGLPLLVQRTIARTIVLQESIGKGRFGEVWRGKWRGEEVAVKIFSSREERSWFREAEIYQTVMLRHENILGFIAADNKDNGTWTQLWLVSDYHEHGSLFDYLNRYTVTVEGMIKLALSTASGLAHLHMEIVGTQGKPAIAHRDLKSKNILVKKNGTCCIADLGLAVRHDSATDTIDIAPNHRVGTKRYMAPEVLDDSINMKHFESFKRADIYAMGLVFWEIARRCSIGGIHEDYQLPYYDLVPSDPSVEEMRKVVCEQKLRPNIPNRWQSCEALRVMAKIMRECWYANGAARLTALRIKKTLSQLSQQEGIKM
Nature of the test: Biochemical ALK5 (TGF-βR1) assay to measure pKi (LANCE Ultra ULight kinase assay). The conditions noted are these: apparent pKi from pIC50 by Cheng-Prusoff, read-out: ALK5 pKi (converted). The essentials: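 Compounds (10 μM to 25 pM) preincubated 60 minutes at room temperature with enzyme, then reaction run 60 minutes at 37° C with ATP added as 125 μM (5× final). Stopped with EDTA plus Eu-anti-phospho-Topoisomerase 2-alpha (Thr1342) antibody, TR-FRET read at 665 nm; pIC50 converted to pKi via Cheng-Prusoff.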

Test [2] relates to TGF-β-stimulated SMAD3 phosphorylation in BEAS-2B cells. As to the kind of experiment: Cellular ALK5 potency assay, inhibition of TGF-β stimulated pSMAD3 formation in BEAS-2B cells. The class given is cell-based. The conditions noted are these: Homo sapiens; inhibition of TGF-β stimulated pSMAD3 formation, BEAS-2B cells; read-out: BEAS2B pIC50 (converted). The essentials:
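BEAS-2B human lung epithelial cells, seeded overnight, were pre-treated with compound in HBSS/25 mM HEPES/1% BSA for 1 h at 37 °C, then stimulated with TGF-β (final 10 ng/mL) for 30 min. Lysates were assayed for pSMAD3 by AlphaLISA; pIC50 came from dose-dependent signal change versus TGF-β-stimulated untreated cells.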

The structures appear in SMILES notation. A value given as a limit tells only on which side of the number the result lay.

Consider `Cc1nc(-c2n[nH]cc2-c2ccc3ncc(N4CCCNCC4)cc3c2)ccc1F` [Compound 209, 3-(1,4-diazepan-1-yl)-6-[3-(5-fluoro-6-methyl-2-pyridyl)-1H-pyrazol-4-yl]quinoline], for which the Ki in test [1] was 0.0398 to 0.316 nM. In test [2], the IC50 was 25.1 to 158 nM.
Regarding `Cc1cccc(-c2n[nH]cc2-c2ccc3ncc(C4=CCNC4)cc3n2)n1` [Compound 588, 7-(2,5-dihydro-1H-pyrrol-3-yl)-2-[3-(6-methyl-2-pyridyl)-1H-pyrazol-4-yl]-1,5-naphthyridine], the Ki in test [1] was 0.0398 to 0.316 nM. In test [2], the IC50 was less than 20 nM.
Turning to `Cc1cccc(-c2[nH]cnc2-c2ccc3ncc(-c4ncc(C(=O)OCC5CNC5)s4)cc3c2)n1` [Compound 1236, azetidin-3-ylmethyl 2-[6-[5-(6-methyl-2-pyridyl)-1H-imidazol-4-yl]-3-quinolyl]thiazole-5-carboxylate], the Ki in test [1] is 0.0398 to 0.316 nM. Moreover, in test [2], the IC50 was 25.1 to 158 nM.
Consider `Cc1cccc(-c2[nH]cnc2-c2ccc3ncc(C4=CCC(NCC(CCO)C(=O)O)CC4)cc3c2)n1` (stereo not drawn) [Compound 150, 4-hydroxy-2-[[[4-[6-[5-(6-methyl-2-pyridyl)-1H-imidazol-4-yl]-3-quinolyl]cyclohex-3-en-1-yl]amino]methyl]butanoic acid], for which the Ki in test [1] was less than 0.0316 nM. The IC50 in test [2] is 200 to 1260 nM.
In the case of `Cc1nc(-c2nc3ccccn3c2-c2ccc3ncc(-c4cc5n(n4)CCNC5)cc3n2)ccc1F` [Compound 558, 2-[2-(5-fluoro-6-methyl-2-pyridyl)imidazo[1,2-a]pyridin-3-yl]-7-(4,5,6,7-tetrahydropyrazolo[1,5-a]pyrazin-2-yl)-1,5-naphthyridine], the Ki in test [1] is 0.0398 to 0.316 nM. Further, the IC50 in test [2] is 25.1 to 158 nM.
On the same counts, the results for `Cc1cccc(-c2n[nH]cc2-c2ccc3ncc(NCCN4CCCC4(C)C)cc3n2)n1` [Compound 31, N-[2-(2,2-dimethylpyrrolidin-1-yl)ethyl]-6-[3-(6-methyl-2-pyridyl)-1H-pyrazol-4-yl]-1,5-naphthyridin-3-amine] are less than 0.0316 nM and 25.1 to 158 nM.
As to `Cc1cccc(-c2[nH]nnc2-c2ccc3ncc(NCCN4CCN(C(C)C)CC4)cc3n2)n1` [Compound 46, N-[2-(4-isopropylpiperazin-1-yl)ethyl]-6-[5-(6-methyl-2-pyridyl)-1H-triazol-4-yl]-1,5-naphthyridin-3-amine], in test [1], the Ki was 0.398 to 3.16 nM. Besides, in test [2], the IC50 was 200 to 1260 nM.
For `Cc1cccc(-c2[nH]cnc2-c2ccc3ncc(C(=O)OCCCC4CCNCC4)cc3c2)n1` [Compound 1132, 3-(4-piperidyl)propyl 6-[5-(6-methyl-2-pyridyl)-1H-imidazol-4-yl]quinoline-3-carboxylate], in test [1], the Ki was 0.0398 to 0.316 nM. Also, the IC50 in test [2] is 25.1 to 158 nM.
On to `Cc1cccc(-c2n[nH]cc2-c2ccc3ncc(-c4cccc(C(=O)O)c4)cc3n2)n1` [Compound 172, 3-[6-[3-(6-methyl-2-pyridyl)-1H-pyrazol-4-yl]-1,5-naphthyridin-3-yl]benzoic acid], for which the Ki in test [1] was less than 0.0316 nM. Besides, in test [2], the IC50 is 1580 to 10000 nM.
As for `CNCCn1cc(-c2cnc3ccc(-c4nc[nH]c4-c4cccc(C)n4)cc3c2)cn1` [Compound 17, N-methyl-2-(4-(6-(5-(6-methylpyridin-2-yl)-1H-imidazol-4-yl)quinolin-3-yl)-1H-pyrazol-1-yl)ethan-1-amine], the Ki in test [1] is less than 0.0316 nM. The IC50 in test [2] was 25.1 to 158 nM.
Take `Cc1cccc(-c2n[nH]cc2-c2ccc3nccc(C4COC5(CCNC5)CN4)c3n2)n1` (stereo not drawn) [Compound 862, 8-[6-[3-(6-methyl-2-pyridyl)-1H-pyrazol-4-yl]-1,5-naphthyridin-4-yl]-6-oxa-2,9-diazaspiro[4.5]decane]: the Ki in test [1] was 3.98 to 31.6 nM. The IC50 in test [2] is 200 to 1260 nM.
On the same counts, the results for `CNC1CCN(c2cnc3ccc(-c4c(-c5cccc(C)n5)[nH]c5cccnc45)nc3c2)CC1` [Compound 328, N-methyl-1-[6-[2-(6-methyl-2-pyridyl)-1H-pyrrolo[3,2-b]pyridin-3-yl]-1,5-naphthyridin-3-yl]piperidin-4-amine] are 0.398 to 3.16 nM and 200 to 1260 nM.
